Here are results for 1 compound from article PMC5699210 (Bioorganic & medicinal chemistry letters, 2011).

“Also recorded” adds a separate entry of the source.

The subject of the assay is rats with inflammation of the dura. The assay is described as follows: Rat model of migraine pain. It is filed as in vivo. Particulars: oral 30 mg/kg.

Take `CN1CCC[C@@H]1CCn1ccc2ccc(NC(=N)c3cccs3)cc21.Cl.Cl` [(R)-8]: the “tactile hyperesthesia (allodynia) of the hindpaw” value (15 min prior to the inflammatory soup, 30 mg/kg) is “attenuated the development of allodynia between 2 and 6 h post-dose; also recorded: attenuates the tactile hyperesthesia (allodynia); also recorded: reduce tactile hyperesthesia (allodynia)”. For the same compound, the “time of maximum effect on allodynia” value (post-dose) is given as 4 h.
